Results reported in ChEMBL document CHEMBL1121895, “Pyrazolodiazepines. 3. 4-Aryl-1,6,7,8-tetrahydro-1,3-dialkylpyrazolo[3,4-e][1,4]diazepines as antidepressant agents” (1981).

Legend:
Type in all cases: functional
Rattus norvegicus [1] = species: Rattus norvegicus; test: Time-related potentiation of methamphetamine-induced anorexia in rats at the lowest active dose.; conditions: read-out: MED
Rattus norvegicus [2] = species: Rattus norvegicus; test: Potentiation of Methamphetamine effect for intracranial self stimulation(SS) in rats
Rattus norvegicus [3] = test: Amount of milk ingested after the 120 min methamphetamine-challenges, produced by the compound at 1.25 mg/kg in fasted rats
Rattus norvegicus [4] = test: Amount of milk ingested after the 120 min methamphetamine-challenges, produced by the compound at 10 mg/kg in fasted rats
Rattus norvegicus [5] = test: Amount of milk ingested after the 120 min methamphetamine-challenges, produced by the compound at 0.312 mg/kg in fasted rats
Rattus norvegicus [6] = test: Amount of milk ingested after the 120 min methamphetamine-challenges, produced by the compound at 2.5 mg/kg in fasted rats
Rattus norvegicus [7] = test: Amount of milk ingested after the 120 min methamphetamine-challenges, produced by the compound at 5 mg/kg in fasted rats
Rattus norvegicus [8] = test: Amount of milk ingested after the 15 min methamphetamine-challenges, produced by the compound at 0.312 mg/kg in fasted rats
Rattus norvegicus [9] = test: Amount of milk ingested after the 15 min methamphetamine-challenges, produced by the compound at 0.625 mg/kg in fasted rats
Rattus norvegicus [10] = test: Amount of milk ingested after the 15 min methamphetamine-challenges, produced by the compound at 1.25 mg/kg in fasted rats
Rattus norvegicus [11] = test: Amount of milk ingested after the 15 min methamphetamine-challenges, produced by the compound at 10 mg/kg in fasted rats
Rattus norvegicus [12] = test: Amount of milk ingested after the 15 min methamphetamine-challenges, produced by the compound at 2.5 mg/kg in fasted rats
Rattus norvegicus [13] = test: Amount of milk ingested after the 15 min methamphetamine-challenges, produced by the compound at 5 mg/kg in fasted rats
Rattus norvegicus [14] = test: Amount of milk ingested after the 120 min methamphetamine-challenges, produced by the compound at 0.625 mg/kg in fasted rats

Row | SMILES | minimal effective dose (Rattus norvegicus [1]) [mg/kg] | other results
1 | Cc1nn(C)c2c1C(c1cccc(Cl)c1)=NC(C)CN2 (stereo unspecified) | 0.63 | 
2 | Cc1nn(C)c2c1C(c1ccccc1)=NCCN2C | 2.5 | Dose (Rattus norvegicus [2]): >10 mg/kg
3 | Cc1nn(C)c2c1C(c1cccc(Cl)c1)=NCCN2C | 0.63 | 
4 | COc1cc(OC)cc(C2=NCCNc3c2c(C)nn3C)c1 | 2.5 | Dose (Rattus norvegicus [2]): 10 mg/kg
5 | Cc1nn(C)c2c1C(c1ccc(O)cc1)=NCCN2C | 2.5 | Dose (Rattus norvegicus [2]): 5 mg/kg
6 | Cc1nn(C)c2c1C(c1ccccc1Cl)=NCCN2CCCN(C)C | > 10 | 
7 | Cc1nn(C)c2c1C(c1ccc(Cl)cc1)=NCCN2 | 2.5 | 
8 | Cc1nn(C)c2c1C(c1cccc(C#N)c1)=NCCN2 | 1.25 | 
9 | CCc1nn(C)c2c1C(c1cccc(F)c1)=NCCN2CCCN(C)C | > 10 | 
10 | COc1ccc(C2=NCCNc3c2c(C)nn3C)cc1 | > 10 | 
11 | Cc1nn(C)c2c1C(c1cccc(Cl)c1)=NCC1CCCCN21 (stereo unspecified) | 2.5 | 
12 | Cc1nn(C)c2c1C(c1cccc(F)c1)=NCCN2 | 2.5 | Dose (Rattus norvegicus [2]): 2.5 mg/kg
13 | Cc1nn(C)c2c1C(c1ccccc1)=NCCN2CCCN(C)C | > 10 | 
14 | Cc1nn(C)c2c1C(c1cccc(N=[N+]=[N-])c1)=NCCN2 | 2.5 | 
15 | CCc1nn(C)c2c1C(c1cccc(F)c1)=NCCN2 | 2.5 | 
16 | Cc1nn(C)c2c1C(c1ccccc1Cl)=NCC(C#N)N2 (stereo unspecified) | > 10 | 
17 | CCN1CCN=C(c2cccc(Cl)c2)c2c(C)nn(C)c21 | 0.63 | 
18 | Cc1cccc(C2=NCCN(CCCN(C)C)c3c2c(C)nn3C)c1 | > 10 | 
19 | CC(=O)N1CCN=C(c2cccc(Cl)c2)c2c(C)nn(C)c21 | > 10 | 
20 | Cc1n[nH]c2c1C(c1cccc(Cl)c1)=NCCN2 | 2.5 | 
21 | Cc1nn(C)c2c1C(c1cccc(Cl)c1)=NCCN2 [ZOMETAPINE] | 0.63 | Dose (Rattus norvegicus [2]): 1.25 mg/kg; Amount (Rattus norvegicus [3]): 0.2 mL; Amount (Rattus norvegicus [4]): 0.1 mL; Amount (Rattus norvegicus [5]): 3.6 mL; Amount (Rattus norvegicus [6]): 0.2 mL; Amount (Rattus norvegicus [7]): 0.1 mL; Amount (Rattus norvegicus [8]): 4.2 mL; Amount (Rattus norvegicus [9]): 1.1 mL; Amount (Rattus norvegicus [10]): 1.7 mL; Amount (Rattus norvegicus [11]): 0 mL; Amount (Rattus norvegicus [12]): 0 mL; Amount (Rattus norvegicus [13]): 0.1 mL; Amount (Rattus norvegicus [14]): 0.5 mL
22 | Cc1nn(C)c2c1C(c1cccc(Cl)c1C)=NCCN2 | 1.25 | Dose (Rattus norvegicus [2]): 5 mg/kg
23 | Cc1nn(C)c2c1C(c1ccccc1)=NCC1CCCCN21 (stereo unspecified) | 5 | 
24 | Cc1nn(C)c2c1C(c1ccccc1)=NCCN2.Cl | 2.5 | 
25 | Cc1nn(C)c2c1C(c1cccc(Br)c1)=NCCN2 | 0.63 | Dose (Rattus norvegicus [2]): 5 mg/kg

Row | SMILES | minimal effective dose (Rattus norvegicus [1]) [mg/kg] | other results
26 | CCc1nn(C)c2c1C(c1cccc(Br)c1)=NCCN2 | 1.25 | Dose (Rattus norvegicus [2]): 5 mg/kg
27 | Cc1nn(C)c2c1C(c1cccc(Cl)c1)=[N+]([O-])CCN2 | > 10 | 
28 | CN(C)CCCN1c2ccccc2CCc2ccccc21 [IMIPRAMINE] | 2.5 | Dose (Rattus norvegicus [2]): 1.25 mg/kg; Amount (Rattus norvegicus [3]): 4.8 mL; Amount (Rattus norvegicus [4]): 0 mL; Amount (Rattus norvegicus [6]): 2.2 mL; Amount (Rattus norvegicus [7]): 0.1 mL; Amount (Rattus norvegicus [9]): 4 mL; Amount (Rattus norvegicus [10]): 2.7 mL; Amount (Rattus norvegicus [11]): 0 mL; Amount (Rattus norvegicus [12]): 3.3 mL; Amount (Rattus norvegicus [13]): 0.5 mL; Amount (Rattus norvegicus [14]): 3.3 mL
29 | Cc1nn(C)c2c1C(c1cccc(N)c1)=NCCN2 | 2.5 | 
30 | Cc1ccc(C)c(C2=NCCNc3c2c(C)nn3C)c1 | > 10 | 
31 | CCn1nc(C)c2c1N(C)CCN=C2c1ccccc1Cl | 5 | Dose (Rattus norvegicus [2]): >10 mg/kg
32 | Cc1nn(C)c2c1C(c1cccc(Cl)c1)=NC(C)(C)CN2 | 2.5 | Dose (Rattus norvegicus [2]): 10 mg/kg
33 | Cc1ccc(C2=NCCNc3c2c(C)nn3C)cc1 | 2.5 | 
34 | Cc1nn(C)c2c1C(c1cccc(Cl)c1)=NCCN2N=O | 1.25 | 
35 | Cc1nn(C)c2c1C(c1ccc(Cl)c(Cl)c1)=NCCN2 | 2.5 | 
36 | Cc1nn(C)c2c1C(c1ccccc1Cl)=NCCN2C | 2.5 | 
37 | Cc1nn(C)c2c1C(c1cccc(F)c1)=NCCN2CCCN(C)C | > 10 | 
38 | Cc1cccc(C2=NC(C)(C)CNc3c2c(C)nn3C)c1 | > 10 | 
39 | Cc1nn(C)c2c1C(c1cccc(Cl)c1)=NCCN2CCCN(C)C | > 10 | 
40 | Cc1nn(C)c2c1C(c1cccc(C(F)(F)F)c1)=NCCN2 | 0.63 | Dose (Rattus norvegicus [2]): 1.25 mg/kg
41 | Cc1nn(C)c2c1C(c1ccccc1)=NC(C)C(C)N2 (stereo unspecified) | 10 | 
42 | Cc1nn(C)c2c1C(c1cccc([N+](=O)[O-])c1)=NCCN2 | 5 | 
43 | Cc1ccc(C2=NCCN(CCCN(C)C)c3c2c(C)nn3C)cc1 | > 10 | 
44 | Cc1cccc(C2=NCCNc3c2c(C)nn3C)c1 | 2.5 | Dose (Rattus norvegicus [2]): 10 mg/kg
45 | Cc1nn(C)c2c1C(c1cccc(O)c1)=NCCN2 | 2.5 | Dose (Rattus norvegicus [2]): 10 mg/kg
46 | Cc1nn(C)c2c1C(c1ccccc1Cl)=NCCN2 | 2.5 | 
47 | Cc1cc(C)cc(C2=NCCNc3c2c(C)nn3C)c1 | > 10 | 
48 | CCn1nc(C)c2c1NCCN=C2c1cccc(C(F)(F)F)c1 | 0.63 | 
49 | CCc1nn(C)c2c1C(c1cccc(C)c1)=NCCN2 | 5 | 
50 | Cc1nn(C)c2c1C(c1cccc(Cl)c1)=NCCN2CCN1CCCC1 | > 10 | 
